According to the NIST ThermoML archive (doi:10.1016/j.jct.2005.07.009):

Tests used:
[1] = xn = mol fraction of the nth substance listed; settings: 298.15 K, 101 kPa, Liquid, Vibrating tube method
[2] = excess molar enthalpy (molar enthalpy of mixing); xn = mol fraction of the nth substance listed; settings: 298.15 K, 101 kPa, Liquid

BrCCBr [1,2-dibromoethane] + CCOC(=O)CC
Settings	excess molar enthalpy [kJ/mol]	mass density [kg/m3]
[1], x2 = 0.0479	–	2086.59
[1], x2 = 0.0959	–	2007.68
[1], x2 = 0.1904	–	1859.96
[1], x2 = 0.2852	–	1720.53
[1], x2 = 0.3448	–	1636.9
[1], x2 = 0.4532	–	1492.57
[1], x2 = 0.5156	–	1413.6
[1], x2 = 0.5836	–	1330.59
[1], x2 = 0.6423	–	1261.58
[1], x2 = 0.7044	–	1190.86
[1], x2 = 0.7717	–	1116.79
[1], x2 = 0.8366	–	1047.86
[1], x2 = 0.9155	–	967.12
[2], x2 = 0.0408	0.0123	–
[2], x2 = 0.0876	0.0231	–
[2], x2 = 0.1399	0.0266	–
[2], x2 = 0.1925	0.0207	–
[2], x2 = 0.2463	0.0052	–
[2], x2 = 0.3001	-0.0207	–
[2], x2 = 0.3515	-0.0478	–
[2], x2 = 0.3996	-0.0756	–
[2], x2 = 0.4154	-0.0859	–
[2], x2 = 0.4446	-0.101	–
[2], x2 = 0.4644	-0.115	–
[2], x2 = 0.486	-0.126	–
[2], x2 = 0.522	-0.144	–
[2], x2 = 0.5865	-0.16	–
[2], x2 = 0.6595	-0.156	–
[2], x2 = 0.7397	-0.138	–
[2], x2 = 0.827	-0.108	–
[2], x2 = 0.9159	-0.0683	–

BrCCCCBr [1,4-dibromobutane] + CCCC(=O)OCC
Settings	excess molar enthalpy [kJ/mol]	mass density [kg/m3]
[1], x2 = 0.1092	–	1704.75
[1], x2 = 0.1651	–	1647.4
[1], x2 = 0.2725	–	1539.36
[1], x2 = 0.387	–	1427.18
[1], x2 = 0.4481	–	1368.56
[1], x2 = 0.502	–	1317.46
[1], x2 = 0.6423	–	1187.58
[1], x2 = 0.6846	–	1149.12
[1], x2 = 0.7489	–	1091.51
[1], x2 = 0.8041	–	1042.59
[1], x2 = 0.9323	–	931.23
[2], x2 = 0.0504	0.0224	–
[2], x2 = 0.1096	0.0378	–
[2], x2 = 0.173	0.0463	–
[2], x2 = 0.2384	0.0469	–
[2], x2 = 0.2992	0.0393	–
[2], x2 = 0.3567	0.0254	–
[2], x2 = 0.4115	0.0013	–
[2], x2 = 0.4617	-0.0214	–
[2], x2 = 0.5078	-0.0408	–
[2], x2 = 0.5351	-0.0531	–
[2], x2 = 0.5479	-0.0556	–
[2], x2 = 0.5908	-0.0659	–
[2], x2 = 0.6504	-0.0717	–
[2], x2 = 0.7147	-0.0718	–
[2], x2 = 0.7818	-0.0658	–
[2], x2 = 0.8513	-0.0521	–
[2], x2 = 0.9352	-0.0251	–

BrCCCCCBr [1,5-dibromopentane] + CCOC(=O)CC
Settings	excess molar enthalpy [kJ/mol]	mass density [kg/m3]
[1], x2 = 0.1344	–	1600.12
[1], x2 = 0.2009	–	1552.01
[1], x2 = 0.263	–	1506.12
[1], x2 = 0.3276	–	1457.5
[1], x2 = 0.3859	–	1412.68
[1], x2 = 0.4471	–	1364.74
[1], x2 = 0.5096	–	1314.84
[1], x2 = 0.6206	–	1223.48
[1], x2 = 0.6836	–	1170.2
[1], x2 = 0.7919	–	1075.76
[1], x2 = 0.8414	–	1031.42
[1], x2 = 0.8957	–	981.96
[2], x2 = 0.0603	0.0351	–
[2], x2 = 0.1247	0.0573	–
[2], x2 = 0.193	0.0719	–
[2], x2 = 0.261	0.0775	–
[2], x2 = 0.3249	0.0747	–
[2], x2 = 0.3861	0.0634	–
[2], x2 = 0.4412	0.0463	–
[2], x2 = 0.4896	0.0293	–
[2], x2 = 0.5244	0.0158	–
[2], x2 = 0.5365	0.0136	–
[2], x2 = 0.5747	-0.003	–
[2], x2 = 0.5773	-0.0044	–
[2], x2 = 0.6302	-0.015	–
[2], x2 = 0.6884	-0.022	–
[2], x2 = 0.752	-0.0263	–
[2], x2 = 0.8187	-0.0241	–
[2], x2 = 0.8848	-0.0193	–
[2], x2 = 0.9461	-0.0121	–
